Measurements taken from patent US10710986B2, “PD-1/PD-L1 inhibitors” (Gilead Sciences, Inc., priority 2018, dated 2020).

Target: PD-1/PD-L1 (Homo sapiens (Human), UniProt Q9NZQ7)
Assay: PD-1/PD-L1 biochemical protein-protein interaction assay (ALPHA)
Details: 0.3 nM His tagged PD-L1, 2.5 nM biotinylated Fc-PD-1, 60 minutes at 25° C., read-out: IC50 PD-L1-PD1

Chain of PD-1/PD-L1 (Q9NZQ7 19-238): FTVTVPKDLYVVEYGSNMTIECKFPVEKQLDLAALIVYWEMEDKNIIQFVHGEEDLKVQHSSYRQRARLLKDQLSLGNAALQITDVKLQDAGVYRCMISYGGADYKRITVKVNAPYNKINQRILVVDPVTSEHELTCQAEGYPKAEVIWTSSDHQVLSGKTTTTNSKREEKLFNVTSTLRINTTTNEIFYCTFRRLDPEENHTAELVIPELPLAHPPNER

COc1nc(-c2cccc(-c3cccc(-c4cnc(CNC[C@H]5CCC(=O)N5)c(OC)n4)c3Cl)c2Cl)cnc1CNCC1CNC(=O)C1 (stereo partly shown) [compound 196]
IC50: 0.17 nM

COc1nc(-c2cccc(-c3cccc(-c4cnc(CN5CCC6(CCC(=O)N6)C5)c(OC)n4)c3Cl)c2Cl)cnc1CNC[C@H]1CCC(=O)N1 (stereo partly shown) [compound 197]
IC50: 0.23 nM

COc1nc(-c2cccc(-c3cccc(-c4cnc(CN5CC[C@@H](NC(C)=O)C5)c(OC)n4)c3Cl)c2Cl)cnc1CNC[C@H]1CCC(=O)N1 [compound 198]
IC50: 0.121 nM

COc1nc(-c2cccc(-c3cccc(-c4cnc(CN[C@@H]5CNC(=O)C5)c(OC)n4)c3Cl)c2Cl)cnc1CNC[C@H]1CCC(=O)N1 [compound 199]
IC50: 0.126 nM

COc1nc(-c2cccc(-c3cccc(-c4cnc(CN[C@H]5CNC(=O)C5)c(OC)n4)c3Cl)c2Cl)cnc1CNC[C@H]1CCC(=O)N1 [compound 200]
IC50: 0.132 nM

COc1nc(-c2cccc(-c3cccc(-c4cnc(CNC[C@H]5CCC(=O)N5)c(OC)n4)c3Cl)c2Cl)cnc1CNCCc1ncc[nH]1 [compound 201]
IC50: 0.28 nM

COc1nc(-c2cccc(-c3cccc(-c4cnc(CNC5CCC6(CNC(=O)C6)C5)c(OC)n4)c3Cl)c2Cl)cnc1CNC[C@H]1CCC(=O)N1 (stereo partly shown) [compound 202]
IC50: 0.144 nM

COc1nc(-c2cccc(-c3cccc(-c4cnc(CN5CCC6(CCC(=O)N6)CC5)c(OC)n4)c3Cl)c2Cl)cnc1CNC[C@H]1CCC(=O)N1 [compound 203]
IC50: 0.129 nM

COc1nc(-c2cccc(-c3cccc(-c4cnc(CN5CC[C@H](NC(C)=O)C5)c(OC)n4)c3Cl)c2Cl)cnc1CNC[C@H]1CCC(=O)N1 [compound 204]
IC50: 0.11 nM

COc1nc(-c2cccc(-c3cccc(-c4cnc(CNC5CCCN(C(C)=O)C5)c(OC)n4)c3Cl)c2Cl)cnc1CNC[C@H]1CCC(=O)N1 (stereo partly shown) [compound 205]
IC50: 0.079 nM

COc1nc(-c2cccc(-c3cccc(-c4cnc(CNC5CCN(C(C)=O)CC5)c(OC)n4)c3Cl)c2Cl)cnc1CNC[C@H]1CCC(=O)N1 [compound 206]
IC50: 0.113 nM

COc1nc(-c2cccc(-c3cccc(-c4cnc(CN5CC6(CNC(=O)N6)C5)c(OC)n4)c3Cl)c2Cl)cnc1CNC[C@H]1CCC(=O)N1 [compound 207]
IC50: 0.104 nM

COc1nc(-c2cccc(-c3cccc(-c4cnc(CNC5CC6(C5)CN(C(C)=O)C6)c(OC)n4)c3Cl)c2Cl)cnc1CNC[C@H]1CCC(=O)N1 [compound 208]
IC50: 0.223 nM

COc1nc(-c2cccc(-c3cccc(-c4cnc(CN5CC6(C5)CN(C(C)=O)C6)c(OC)n4)c3Cl)c2Cl)cnc1CN1CC2(C1)CN(C(C)=O)C2 [compound 209]
IC50: 0.175 nM

COc1nc(-c2cccc(-c3cccc(-c4cnc(CNCC5(C)COC(=O)N5)c(OC)n4)c3Cl)c2Cl)cnc1CNC[C@@H]1CCC(=O)N1 (stereo partly shown) [compound 210]
IC50: 0.3 nM

COc1nc(-c2cccc(-c3cccc(-c4cnc(CNC[C@@H]5CCC(=O)N5)c(OC)n4)c3Cl)c2Cl)cnc1CNCCN1CCNC1=O [compound 211]
IC50: 0.095 nM

COc1nc(-c2cccc(-c3cccc(-c4cnc(CNC5CCc6cn[nH]c6C5)c(OC)n4)c3Cl)c2Cl)cnc1CNC[C@@H]1CCC(=O)N1 (stereo partly shown) [compound 212]
IC50: 0.48 nM

COc1nc(-c2cccc(-c3cccc(-c4cnc(CNCC5(C#N)CCC5)c(OC)n4)c3Cl)c2Cl)cnc1CNC[C@@H]1CCC(=O)N1 [compound 213]
IC50: 0.84 nM

COc1nc(-c2cccc(-c3cccc(-c4cnc(CNC[C@@H]5CCC(=O)N5)c(OC)n4)c3Cl)c2Cl)cnc1CNCCn1ccc(C)n1 [compound 214]
IC50: 0.26 nM

COC[C@@H]1CC[C@H]1NCc1ncc(-c2cccc(-c3cccc(-c4cnc(CNC[C@@H]5CCC(=O)N5)c(OC)n4)c3Cl)c2Cl)nc1OC [compound 215]
IC50: 0.11 nM

COc1nc(-c2cccc(-c3cccc(-c4cnc(CN5CC[C@@H]6CC[C@@H](O)[C@@H]65)c(OC)n4)c3Cl)c2Cl)cnc1CNC[C@@H]1CCC(=O)N1 [compound 216]
IC50: 0.21 nM

COc1nc(-c2cccc(-c3cccc(-c4cnc(CNC5CC(CC(N)=O)C5)c(OC)n4)c3Cl)c2Cl)cnc1CNC[C@@H]1CCC(=O)N1 (stereo partly shown) [compound 217]
IC50: 0.14 nM

COc1nc(-c2cccc(-c3cccc(-c4cnc(CNCC5(S(C)(=O)=O)CC5)c(OC)n4)c3Cl)c2Cl)cnc1CNC[C@@H]1CCC(=O)N1 [compound 218]
IC50: 0.14 nM

COc1nc(-c2cccc(-c3cccc(-c4cnc(CNC[C@@H]5C[C@H]5c5cccnc5)c(OC)n4)c3Cl)c2Cl)cnc1CNC[C@@H]1CCC(=O)N1 [compound 219]
IC50: 0.19 nM

COc1nc(-c2cccc(-c3cccc(-c4cnc(CNC[C@@H]5CCC(=O)N5)c(OC)n4)c3Cl)c2Cl)cnc1CNCC1CC1CC#N (stereo partly shown) [compound 220]
IC50: 0.36 nM

COC[C@H]1C[C@@H](NCc2ncc(-c3cccc(-c4cccc(-c5cnc(CNC[C@@H]6CCC(=O)N6)c(OC)n5)c4Cl)c3Cl)nc2OC)C1 [compound 221]
IC50: 0.227 nM

COc1nc(-c2cccc(-c3cccc(-c4cnc(CNC5CCC([S+](C)[O-])C5)c(OC)n4)c3Cl)c2Cl)cnc1CNC[C@@H]1CCC(=O)N1 (stereo partly shown) [compound 222]
IC50: 0.291 nM

COc1nc(-c2cccc(-c3cccc(-c4cnc(CN[C@@H]5CCOC[C@H]5C)c(OC)n4)c3Cl)c2Cl)cnc1CNC[C@@H]1CCC(=O)N1 [compound 223]
IC50: 0.584 nM

COc1nc(-c2cccc(-c3cccc(-c4cnc(CN5C[C@@H](OC)C[C@H]5CO)c(OC)n4)c3Cl)c2Cl)cnc1CNC[C@@H]1CCC(=O)N1 [compound 224]
IC50: 0.393 nM

COCCC1CN(Cc2ncc(-c3cccc(-c4cccc(-c5cnc(CNC[C@@H]6CCC(=O)N6)c(OC)n5)c4Cl)c3Cl)nc2OC)C1 [compound 225]
IC50: 0.288 nM

CC[C@@H]1OCC[C@H]1NCc1ncc(-c2cccc(-c3cccc(-c4cnc(CNC[C@@H]5CCC(=O)N5)c(OC)n4)c3Cl)c2Cl)nc1OC [compound 226]
IC50: 0.474 nM

COc1nc(-c2cccc(-c3cccc(-c4cnc(CNC[C@@H]5CCC(=O)N5)c(OC)n4)c3Cl)c2Cl)cnc1CNCC1CCN(C(C)=O)C1 (stereo partly shown) [compound 227]
IC50: 0.136 nM

COc1nc(-c2cccc(-c3cccc(-c4cnc(CNC[C@H]5C[C@@H](OC)C5)c(OC)n4)c3Cl)c2Cl)cnc1CNC[C@@H]1CCC(=O)N1 [compound 228]
IC50: 0.168 nM

COc1nc(-c2cccc(-c3cccc(-c4cnc(CN5CC[C@@H](C)[C@@H](O)C5)c(OC)n4)c3Cl)c2Cl)cnc1CNC[C@@H]1CCC(=O)N1 [compound 229]
IC50: 0.229 nM

COc1nc(-c2cccc(-c3cccc(-c4cnc(CN5C[C@@H]6CCC[C@]6(CO)C5)c(OC)n4)c3Cl)c2Cl)cnc1CNC[C@@H]1CCC(=O)N1 [compound 230]
IC50: 0.331 nM

COc1nc(-c2cccc(-c3cccc(-c4cnc(CN5CC[C@@H](O)[C@H](C)C5)c(OC)n4)c3Cl)c2Cl)cnc1CNC[C@@H]1CCC(=O)N1 [compound 231]
IC50: 0.064 nM

COc1nc(-c2cccc(-c3cccc(-c4cnc(CN5CCC6(CCOC6=O)C5)c(OC)n4)c3Cl)c2Cl)cnc1CNC[C@@H]1CCC(=O)N1 (stereo partly shown) [compound 232]
IC50: 0.312 nM

CCO[C@H]1C[C@H](NCc2ncc(-c3cccc(-c4cccc(-c5cnc(CNC[C@@H]6CCC(=O)N6)c(OC)n5)c4Cl)c3Cl)nc2OC)C1 [compound 233]
IC50: 0.451 nM

COc1nc(-c2cccc(-c3cccc(-c4cnc(CN5CC6(CCOC6)C5)c(OC)n4)c3Cl)c2Cl)cnc1CNC[C@@H]1CCC(=O)N1 [compound 234]
IC50: 0.088 nM

COc1nc(-c2cccc(-c3cccc(-c4cnc(CNC[C@@H]5CCC(=O)N5)c(OC)n4)c3Cl)c2Cl)cnc1CNCCC1CNC(=O)C1 (stereo partly shown) [compound 235]
IC50: 0.106 nM
